Source: patent publication US10994015B2, “EGFR proteolysis targeting chimeric molecules and associated methods of use” (Arvinas Operations, Inc., priority 2016, dated 2021)

Assays:
EGFR Exon20NPG = EGFR Exon20NPG (Homo sapiens (Human), UniProt P00533, INS770NPG); assay: TR-FRET assay for ERBB kinases; format: biochemical; conditions: geometric mean if measured more than once
Method in brief: (§1)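 Phosphorylation of fluorescein-labeled poly-GluTyr read as TR-FRET using Tb-pY20 antibody after EDTA stop, with 340 nm excitation. Kinase reaction ran 10 min at room temperature following 10 min compound pre-incubation; substrate mix held 3 mM ATP and 30 µM peptide before addition. Buffer was HEPES pH 7.5.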

EGFR L858R/T790M/C797S = EGFR L858R/T790M/C797S (Homo sapiens (Human), UniProt P00533, C797S/L858R/T790M); assay: TR-FRET assay for ERBB kinases; format: biochemical; conditions: geometric mean if measured more than once
Method in brief: (§2)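 Three-fold DMSO dilution series of each compound is diluted 10-fold into HEPES buffer (pH 7.5, NaCl, MgCl2, DTT, Pluronic). Enzyme is added for a 10 min pre-incubation. ATP/peptide mix (3 mM ATP, 30 uM substrate as added) starts a 10 min room-temperature reaction, halted with EDTA and Tb antibody.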

EGFR L858R/T790M = EGFR L858R/T790M (Homo sapiens (Human), UniProt P00533, L858R/T790M); assay: TR-FRET assay for ERBB kinases; format: biochemical; conditions: geometric mean if measured more than once
Method in brief: as §2

EGFR WT = EGFR WT (Homo sapiens (Human), UniProt P00533); assay: TR-FRET assay for ERBB kinases; format: biochemical; conditions: geometric mean if measured more than once
Method in brief: as §2

[1] = target: EGFR L858R/T790M double mutant (H1975) (Homo sapiens (Human), UniProt P00533, L858R/T790M); assay: EGFR protein degradation assay (Western blot); format: cell-based; conditions: 72 hours, 300 nM to 10 nM
Method in brief: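 EGFR protein levels were measured by immunoblotting. Lysate protein was quantified by BCA, and 10 μg per sample was separated by SDS/PAGE at 165V for 2 hours and transferred to PVDF. Membranes were blocked in TBS-T with 5% milk for 1 hour, probed overnight at 4° C with EGFR and tubulin antibodies, then secondary antibody for 1 hour, and detected by ECL on a Chemidoc.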

HER3 = HER3 (Homo sapiens (Human), UniProt P21860); assay: TR-FRET assay for ERBB kinases; format: biochemical; conditions: geometric mean if measured more than once
EGFR Δ19/746/750 T790M = EGFR Δ19/746/750 T790M (Homo sapiens (Human), UniProt P00533, DEL746-750/T790M); assay: TR-FRET assay for ERBB kinases; format: biochemical; conditions: geometric mean if measured more than once
Method in brief: as §1

EGFR Δ19/746/750 = EGFR Δ19/746/750 (Homo sapiens (Human), UniProt P00533, DEL746-750); assay: TR-FRET assay for ERBB kinases; format: biochemical; conditions: geometric mean if measured more than once
Method in brief: as §1

[2] = target: EGFR L858R/T790M/C797S triple mutant (H520*) (Homo sapiens (Human), UniProt P00533, C797S/L858R/T790M); assay: EGFR protein degradation assay (Western blot); format: cell-based; conditions: 72 hours, 300 nM to 10 nM
Method in brief: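 EGFR loss in the triple-mutant line measured by immunoblot: clarified lysates normalised by BCA, run on 4-12% Bis-Tris gels, blotted to PVDF, probed with HRP anti-rabbit secondary. Before lysis, cells were dosed from 1, 0.3, 0.1, 0.03 and 0.01 mM DMSO stocks (not final concentrations) after overnight culture at 37° C.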

[3] = target: EGFR-wt (MDA-MB-231 or MCF7 or A549 or OVCAR8) (Homo sapiens (Human), UniProt P00533); assay: EGFR protein degradation assay (Western blot); format: cell-based; conditions: 72 hours, 300 nM to 10 nM
Method in brief: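 EGFR degradation was assessed by Western blot. Cells expressing the appropriate EGFR were seeded in 6-well plates (300,000 cells per well) and adhered overnight. Media was removed, cells were washed with cold phosphate-buffered saline, scraped into 400 μl Cell Signaling lysis buffer plus protease inhibitor cocktail, and spun once at 10 000 rpm for 10 minutes. After BCA quantification, loading buffer and reducing agent were added. Gels loaded with 10 μg protein ran at 165V for 2 hours, and bands were visualized by chemiluminescence.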

EGFR Exon 20 ASV (HeLa*) = EGFR Exon 20 ASV (HeLa*) (Homo sapiens (Human), UniProt P00533, DUP767-769); assay: EGFR protein degradation assay (Western blot); format: cell-based; conditions: 72 hours, 300 nM to 10 nM

Chain of EGFR L858R/T790M (P00533 25-1210 T790M/L858R): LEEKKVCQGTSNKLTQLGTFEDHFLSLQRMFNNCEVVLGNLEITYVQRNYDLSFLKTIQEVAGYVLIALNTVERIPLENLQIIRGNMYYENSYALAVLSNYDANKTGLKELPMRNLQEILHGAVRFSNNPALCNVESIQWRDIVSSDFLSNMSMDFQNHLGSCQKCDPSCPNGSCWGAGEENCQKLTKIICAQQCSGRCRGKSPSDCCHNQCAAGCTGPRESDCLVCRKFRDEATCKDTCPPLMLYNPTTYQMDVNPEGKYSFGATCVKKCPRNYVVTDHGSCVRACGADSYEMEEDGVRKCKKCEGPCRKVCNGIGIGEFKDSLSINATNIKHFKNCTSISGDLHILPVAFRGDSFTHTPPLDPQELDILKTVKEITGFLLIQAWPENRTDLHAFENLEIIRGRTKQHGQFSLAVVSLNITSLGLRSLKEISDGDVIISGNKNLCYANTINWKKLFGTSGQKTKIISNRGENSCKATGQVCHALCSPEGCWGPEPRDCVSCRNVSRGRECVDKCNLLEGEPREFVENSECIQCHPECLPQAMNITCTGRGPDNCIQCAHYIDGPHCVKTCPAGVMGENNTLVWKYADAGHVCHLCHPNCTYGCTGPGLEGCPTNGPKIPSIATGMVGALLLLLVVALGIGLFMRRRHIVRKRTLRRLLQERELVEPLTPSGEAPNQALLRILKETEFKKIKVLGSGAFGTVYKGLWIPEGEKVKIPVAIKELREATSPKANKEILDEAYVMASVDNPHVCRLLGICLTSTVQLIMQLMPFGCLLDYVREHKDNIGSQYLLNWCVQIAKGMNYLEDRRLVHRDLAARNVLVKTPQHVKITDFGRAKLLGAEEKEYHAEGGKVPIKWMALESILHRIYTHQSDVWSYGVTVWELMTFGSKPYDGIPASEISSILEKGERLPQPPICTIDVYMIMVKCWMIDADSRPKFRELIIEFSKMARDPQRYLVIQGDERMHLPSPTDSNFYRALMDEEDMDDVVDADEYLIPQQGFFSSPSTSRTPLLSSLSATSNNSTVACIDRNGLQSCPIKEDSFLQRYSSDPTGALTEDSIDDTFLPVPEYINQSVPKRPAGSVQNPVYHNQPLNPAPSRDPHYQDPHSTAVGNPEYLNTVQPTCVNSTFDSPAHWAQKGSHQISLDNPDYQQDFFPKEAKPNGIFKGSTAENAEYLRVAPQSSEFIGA
Chain of EGFR-wt (MDA-MB-231 or MCF7 or A549 or OVCAR8) (P00533 25-1210): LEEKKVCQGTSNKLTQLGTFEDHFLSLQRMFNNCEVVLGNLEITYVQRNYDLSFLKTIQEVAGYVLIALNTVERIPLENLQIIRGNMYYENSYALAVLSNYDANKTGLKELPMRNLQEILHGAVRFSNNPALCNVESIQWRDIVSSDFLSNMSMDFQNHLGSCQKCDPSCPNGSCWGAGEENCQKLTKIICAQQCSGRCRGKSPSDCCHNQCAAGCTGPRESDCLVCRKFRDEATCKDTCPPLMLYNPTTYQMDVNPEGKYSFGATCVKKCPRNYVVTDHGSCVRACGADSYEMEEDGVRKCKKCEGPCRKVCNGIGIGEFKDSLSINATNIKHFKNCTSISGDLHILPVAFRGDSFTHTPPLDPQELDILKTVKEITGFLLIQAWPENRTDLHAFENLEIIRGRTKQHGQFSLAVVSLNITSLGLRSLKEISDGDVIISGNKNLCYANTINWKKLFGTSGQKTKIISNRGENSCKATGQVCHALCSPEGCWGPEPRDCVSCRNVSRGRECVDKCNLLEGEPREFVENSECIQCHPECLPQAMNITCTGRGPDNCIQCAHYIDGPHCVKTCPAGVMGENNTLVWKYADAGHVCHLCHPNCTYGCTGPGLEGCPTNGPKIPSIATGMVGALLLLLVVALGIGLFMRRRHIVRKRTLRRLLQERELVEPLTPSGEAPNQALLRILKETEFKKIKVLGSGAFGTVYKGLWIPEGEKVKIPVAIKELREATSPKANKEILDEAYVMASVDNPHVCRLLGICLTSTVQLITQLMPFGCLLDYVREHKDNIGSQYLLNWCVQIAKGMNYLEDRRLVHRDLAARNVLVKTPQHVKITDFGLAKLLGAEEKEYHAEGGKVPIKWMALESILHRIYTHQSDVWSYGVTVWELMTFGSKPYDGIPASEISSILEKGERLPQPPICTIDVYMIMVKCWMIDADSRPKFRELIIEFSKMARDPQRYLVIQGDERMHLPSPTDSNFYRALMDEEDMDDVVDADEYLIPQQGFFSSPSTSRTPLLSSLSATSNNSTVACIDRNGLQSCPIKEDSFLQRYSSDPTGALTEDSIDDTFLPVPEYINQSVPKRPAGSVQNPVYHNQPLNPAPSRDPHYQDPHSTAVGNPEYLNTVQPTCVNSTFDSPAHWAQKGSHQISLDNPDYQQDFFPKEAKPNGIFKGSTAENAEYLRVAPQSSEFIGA
Chain of EGFR WT (P00533 25-1210): as above
Chain of EGFR L858R/T790M/C797S (P00533 25-1210 T790M/C797S/L858R): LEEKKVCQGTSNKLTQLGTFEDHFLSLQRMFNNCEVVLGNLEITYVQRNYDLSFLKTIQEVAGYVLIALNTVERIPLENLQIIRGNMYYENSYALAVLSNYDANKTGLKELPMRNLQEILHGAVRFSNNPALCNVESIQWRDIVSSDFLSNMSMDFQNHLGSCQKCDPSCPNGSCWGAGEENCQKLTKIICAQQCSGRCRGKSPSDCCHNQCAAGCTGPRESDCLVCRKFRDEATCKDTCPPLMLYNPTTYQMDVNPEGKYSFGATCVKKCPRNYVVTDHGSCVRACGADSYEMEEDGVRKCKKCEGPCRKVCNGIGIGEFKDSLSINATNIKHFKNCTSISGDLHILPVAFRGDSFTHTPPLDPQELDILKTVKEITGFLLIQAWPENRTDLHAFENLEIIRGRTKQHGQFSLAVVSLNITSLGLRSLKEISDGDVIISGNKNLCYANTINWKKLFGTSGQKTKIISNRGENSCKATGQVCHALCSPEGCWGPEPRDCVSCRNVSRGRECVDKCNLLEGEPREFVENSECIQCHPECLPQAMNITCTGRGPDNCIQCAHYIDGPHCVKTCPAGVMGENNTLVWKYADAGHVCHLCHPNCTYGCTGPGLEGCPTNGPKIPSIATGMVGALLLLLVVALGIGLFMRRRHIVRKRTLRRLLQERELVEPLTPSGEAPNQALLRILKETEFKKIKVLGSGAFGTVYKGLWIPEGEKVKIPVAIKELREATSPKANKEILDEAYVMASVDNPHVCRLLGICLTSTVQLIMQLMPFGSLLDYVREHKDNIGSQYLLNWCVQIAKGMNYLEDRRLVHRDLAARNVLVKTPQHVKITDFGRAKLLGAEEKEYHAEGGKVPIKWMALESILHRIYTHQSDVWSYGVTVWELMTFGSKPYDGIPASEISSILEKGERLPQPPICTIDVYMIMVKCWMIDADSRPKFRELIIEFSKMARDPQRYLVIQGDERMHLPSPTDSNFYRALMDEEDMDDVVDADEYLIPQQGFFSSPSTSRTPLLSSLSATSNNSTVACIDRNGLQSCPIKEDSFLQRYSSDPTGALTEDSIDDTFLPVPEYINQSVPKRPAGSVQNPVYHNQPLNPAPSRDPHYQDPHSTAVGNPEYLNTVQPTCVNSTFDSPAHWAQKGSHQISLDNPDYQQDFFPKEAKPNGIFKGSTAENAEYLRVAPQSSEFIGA

SMILES | IC50 (EGFR Exon20NPG) [nM] | IC50 (EGFR L858R/T790M/C797S) [nM] | IC50 (EGFR L858R/T790M) [nM] | IC50 (EGFR WT) [nM] | EGFR protein remaining, EGFR L858R/T790M double mutant [1] | IC50 (HER3) [nM] | IC50 (EGFR Δ19/746/750 T790M) [nM] | IC50 (EGFR Δ19/746/750) [nM] | EGFR protein remaining, EGFR L858R/T790M/C797S triple mutant [2] | EGFR protein remaining, EGFR-wt [3] | EGFR protein remaining, EGFR Exon 20 ASV (EGFR Exon 20 ASV (HeLa*))
COC1CCN(c2nccc(Nc3cc4c(cn3)nc(COCCOCCON3CCN(c5ccc6c(c5)C(=O)N(C5CCC(=O)NC5=O)C6=O)CC3)n4C(C)C)n2)CC1 (stereo not shown) [compound 74] | > 30000 | 10000 | > 30000 | > 30000 | C (>80% EGFR protein remaining after 72 hours of incubation with the test compound at a concentration of 300 nM) | > 30000 | – | – | – | – | –
CC(C)n1nc(N2CCN(CC3CCN(c4ccc5c(c4)C(=O)N(C4CCC(=O)NC4=O)C5=O)CC3)CC2)c2cnc(Nc3ccnc(-c4cnn(S(=O)(=O)C5CC5)c4)n3)cc21 (stereo not shown) [compound 312] | – | 0.35 | 0.67 | 95 | – | – | 4.9 | 170 | B (≤80% and >50% EGFR protein remaining after 72 hours of incubation with the test compound at a concentration between 300 nM and 10 nM) | – | –
COC1CCN(c2nccc(Nc3cc4c(cn3)nc(COCCN3CCN(c5ccc(OCCCN6CCN(c7ccc8c(c7)C(=O)N(C7CCC(=O)NC7=O)C8=O)CC6)cc5)CC3)n4C(C)C)n2)CC1 (stereo not shown) [Example 301, 2-(2,6-dioxopiperidin-3-yl)-5-(4-(3-(4-(4-(2-((1-isopropyl-6-((2-(4-methoxypiperidin-1-yl)pyrimidin-4-yl)amino)-1H-imidazo[4,5-c]pyridin-2-yl)methoxy)ethyl)piperazin-1-yl)phenoxy)propyl)piperazin-1-yl)isoindoline-1,3-dione] | – | 34 | 240 | 2800 | – | – | 270 | 1600 | C (>80% EGFR protein remaining after 72 hours of incubation with the test compound at a concentration of 300 nM) | – | –
Cc1ncsc1-c1ccc([C@H](C)NC(=O)[C@@H]2C[C@@H](O)CN2C(=O)[C@@H](NC(=O)COCCOCCOCCN2CCN(CCOCC#Cc3cccc4c3C(=O)N(C(C(=O)Nc3nccs3)c3cc(F)ccc3O)C4)CC2)C(C)(C)C)cc1 (stereo partly shown) [compound 310] | – | 22 | 110 | 140 | – | – | 8400 | 6000 | B (≤80% and >50% EGFR protein remaining after 72 hours of incubation with the test compound at a concentration between 300 nM and 10 nM) | – | –
CC(C)n1nc(N2CC(CN[C@H]3C[C@H](Oc4ccc5c(c4)C(=O)N(C4CCC(=O)NC4=O)C5=O)C3)C2)c2cnc(Nc3ccnc(-c4cnn(S(=O)(=O)C5CC5)c4)n3)cc21 (stereo partly shown) [compound 319] | – | 0.8 | 2.3 | 4.2 | – | – | 0.3 | 1.3 | A (≤50% EGFR protein remaining after 72 hours of incubation with the test compound at a concentration between 300 nM and 10 nM) | – | –
Cc1ncsc1-c1ccc(CNC(=O)[C@@H]2C[C@@H](O)CN2C(=O)[C@H](C(C)C)N2Cc3ccccc3C2=O)c(OCCOCCN2CCN(Cc3ccc(-c4cc5c(NCc6ccccc6Cl)ncnc5[nH]4)cc3)CC2)c1 [compound 107] | 600 | 6000 | 6700 | 140 | – | – | – | – | – | C (>80% EGFR protein remaining after 72 hours of incubation with the test compound at a concentration of 300 nM) | C (>80% EGFR protein remaining after 72 hours of incubation with the test compound at a concentration of 300 nM)
O=C1CCC(N2C(=O)c3ccc(OCCN4CCN(Cc5ccc(C6Cc7c(NCc8ccccc8Cl)ncnc7N6)cc5)CC4)cc3C2=O)C(=O)N1 (stereo not shown) [compound 101] | 69 | 3600 | 3400 | 12 | – | – | – | – | – | C (>80% EGFR protein remaining after 72 hours of incubation with the test compound at a concentration of 300 nM) | C (>80% EGFR protein remaining after 72 hours of incubation with the test compound at a concentration of 300 nM)
Cc1ncsc1-c1ccc([C@H](C)NC(=O)[C@@H]2C[C@@H](O)CN2C(=O)[C@@H](NC(=O)COCCCOc2ccc(N3CCN(CCOCc4nc5cnc(Nc6ccnc(-c7cnn(S(=O)(=O)C8CC8)c7)n6)cc5n4C(C)C)CC3)cc2)C(C)(C)C)cc1 [compound 306] | – | 16 | 53 | 13000 | – | – | 21 | 380 | A (≤50% EGFR protein remaining after 72 hours of incubation with the test compound at a concentration between 300 nM and 10 nM) | – | –
CC(C)n1nc(N2CC(CN3CCN(CC4CCN(c5ccc6c(c5)C(=O)N(C5CCC(=O)NC5=O)C6=O)CC4)CC3)C2)c2cnc(Nc3ccnc(-c4cnn(S(=O)(=O)C5CC5)c4)n3)cc21 (stereo not shown) [compound 313] | – | 0.26 | 0.29 | 1.4 | – | – | 1.6 | 7.5 | A (≤50% EGFR protein remaining after 72 hours of incubation with the test compound at a concentration between 300 nM and 10 nM) | C (>80% EGFR protein remaining after 72 hours of incubation with the test compound at a concentration of 300 nM) | –
Cc1ncsc1-c1ccc([C@H](C)NC(=O)[C@@H]2C[C@@H](O)CN2C(=O)[C@@H](NC(=O)COCCN2CCN(CCOCCOCCOCC#Cc3cccc4c3C(=O)N(C(C(=O)Nc3nccs3)c3cc(F)ccc3O)C4)CC2)C(C)(C)C)cc1 (stereo partly shown) [compound 311] | – | 16 | 65 | 97 | – | – | 4600 | 9000 | B (≤80% and >50% EGFR protein remaining after 72 hours of incubation with the test compound at a concentration between 300 nM and 10 nM) | – | –
Cc1ncsc1-c1ccc([C@H](C)NC(=O)[C@@H]2C[C@@H](O)CN2C(=O)[C@@H](NC(=O)CN2CCN(CCOCCOCCOCCOCC#Cc3cccc4c3C(=O)N(C(C(=O)Nc3nccs3)c3cc(F)ccc3O)C4)CC2)C(C)(C)C)cc1 (stereo partly shown) [compound 309] | – | 25 | 120 | 7.2 | – | – | 5100 | 1900 | C (>80% EGFR protein remaining after 72 hours of incubation with the test compound at a concentration of 300 nM) | – | –
Cc1ncsc1-c1ccc(CNC(=O)[C@@H]2C[C@@H](O)CN2C(=O)[C@H](C(C)C)N2Cc3ccccc3C2=O)c(OCCOCCOCCOCCN2CCN(Cc3ccc(-c4cc5c(NCc6ccccc6Cl)ncnc5[nH]4)cc3)CC2)c1 [compound 109] | 580 | 8900 | 6000 | 180 | – | – | – | – | – | C (>80% EGFR protein remaining after 72 hours of incubation with the test compound at a concentration of 300 nM) | C (>80% EGFR protein remaining after 72 hours of incubation with the test compound at a concentration of 300 nM)
CC(C)n1nc(N2CC(CN3CCN(CC4CCN(c5ccc6c(c5)C(=O)N(C5CCC(=O)NC5=O)C6=O)CC4)CC3)C2)c2cnc(Nc3ccnc(-c4cnn(S(=O)(=O)C5CC5)c4)n3)cc21 (stereo not shown) [compound 314] | – | 20 | 98 | 89 | – | – | 5200 | 10000 | C (>80% EGFR protein remaining after 72 hours of incubation with the test compound at a concentration of 300 nM) | – | –
Cc1ncsc1-c1ccc([C@H](C)NC(=O)[C@@H]2C[C@@H](O)CN2C(=O)[C@@H](NC(=O)COCCOCCCNCC2CN(c3nn(C(C)C)c4cc(Nc5ccnc(-c6cnn(S(=O)(=O)C7CC7)c6)n5)ncc34)C2)C(C)(C)C)cc1 [compound 308] | – | 0.27 | 0.91 | 120 | – | – | 2.1 | 53 | B (≤80% and >50% EGFR protein remaining after 72 hours of incubation with the test compound at a concentration between 300 nM and 10 nM) | – | –
